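Tested at 5 concentrations; 48 h exposure; 96-well plates; endpoints linearly interpolated, else capped at highest concentration. TGI marks complete inhibition of growth.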
Columns and labels:
Assay in all cases: NCI tumour cell line growth inhibition, 48 h
786-0 renal = test system: 786-0 renal
A498 renal = test system: A498 renal
A549 NSCLC = test system: A549 NSCLC
ACHN renal = test system: ACHN renal
CAKI-1 renal = test system: CAKI-1 renal
CCRF-CEM leukemia = test system: CCRF-CEM leukemia
COLO 205 colon = test system: COLO 205 colon
DLD-1 colon = test system: DLD-1 colon
DMS 114 small cell lung = test system: DMS 114 small cell lung
DMS 273 small cell lung = test system: DMS 273 small cell lung
EKVX NSCLC = test system: EKVX NSCLC
HCC-2998 colon = test system: HCC-2998 colon
HCT-116 colon = test system: HCT-116 colon
HCT-15 colon = test system: HCT-15 colon
HL-60(TB) leukemia = test system: HL-60(TB) leukemia
HOP-18 NSCLC = test system: HOP-18 NSCLC
HOP-62 NSCLC = test system: HOP-62 NSCLC
HOP-92 NSCLC = test system: HOP-92 NSCLC
HT29 colon = test system: HT29 colon
IGROV1 ovarian = test system: IGROV1 ovarian
K-562 leukemia = test system: K-562 leukemia
KM12 colon = test system: KM12 colon
KM20L2 colon = test system: KM20L2 colon
LOX IMVI melanoma = test system: LOX IMVI melanoma
M14 melanoma = test system: M14 melanoma
M19-MEL melanoma = test system: M19-MEL melanoma
MALME-3M melanoma = test system: MALME-3M melanoma
MOLT-4 leukemia = test system: MOLT-4 leukemia
NCI-H226 lung = test system: NCI-H226 lung
NCI-H23 lung = test system: NCI-H23 lung
NCI-H460 lung = test system: NCI-H460 lung
NCI-H522 lung = test system: NCI-H522 lung
OVCAR-3 ovarian = test system: OVCAR-3 ovarian
OVCAR-4 ovarian = test system: OVCAR-4 ovarian
OVCAR-5 ovarian = test system: OVCAR-5 ovarian
OVCAR-8 ovarian = test system: OVCAR-8 ovarian
RPMI-8226 leukemia = test system: RPMI-8226 leukemia
RXF 393 renal = test system: RXF 393 renal
SF-268 CNS = test system: SF-268 CNS
SF-295 CNS = test system: SF-295 CNS
SF-539 CNS = test system: SF-539 CNS
SK-MEL-2 melanoma = test system: SK-MEL-2 melanoma
SK-MEL-28 melanoma = test system: SK-MEL-28 melanoma
SK-MEL-5 melanoma = test system: SK-MEL-5 melanoma
SK-OV-3 ovarian = test system: SK-OV-3 ovarian
SN12C renal = test system: SN12C renal
SNB-19 CNS = test system: SNB-19 CNS
SNB-75 CNS = test system: SNB-75 CNS
SNB-78 CNS = test system: SNB-78 CNS
SR leukemia = test system: SR leukemia
SW-620 colon = test system: SW-620 colon
TK-10 renal = test system: TK-10 renal
U251 CNS = test system: U251 CNS
UACC-257 melanoma = test system: UACC-257 melanoma
UACC-62 melanoma = test system: UACC-62 melanoma
UO-31 renal = test system: UO-31 renal
XF 498 CNS = test system: XF 498 CNS
LXFL 529 NSCLC = test system: LXFL 529 NSCLC
RXF-631 renal = test system: RXF-631 renal
MCF7 breast = test system: MCF7 breast
NCI/ADR-RES ovarian = test system: NCI/ADR-RES ovarian
P388 leukemia = test system: P388 leukemia
P388/ADR leukemia = test system: P388/ADR leukemia
SN12K1 renal = test system: SN12K1 renal

Measured: TGI

CN=S(=O)(c1ccccc1)c1ccccc1
not listed: LXFL 529 NSCLC | RXF-631 renal | MCF7 breast | NCI/ADR-RES ovarian | P388 leukemia | P388/ADR leukemia | SN12K1 renal
> 100 µM: all other assays above

COc1ccc(CC(C)N)cc1 (stereo not given)
not listed: M19-MEL melanoma | MCF7 breast | NCI/ADR-RES ovarian | P388 leukemia | P388/ADR leukemia | SN12K1 renal
> 100 µM: all other assays above

COc1cc[n+](C)cc1
not listed: 786-0 renal | A498 renal | ACHN renal | CAKI-1 renal | M14 melanoma | SR leukemia | TK-10 renal | LXFL 529 NSCLC | RXF-631 renal
> 100 µM: all other assays above

From PubChem BioAssay (NCI)
